Data on 79 compounds can be found in the METLIN SMRT retention time set (Domingo-Almenara et al. 2019).

The nature of this data set: gradient 5% acetonitrile 3 min, to 50% in 2 min, to 85% in 15 min, held 3 min, 100 µL/min. Conditions: column: Zorbax Extend-C18 2.1 x 50 mm; eluents: water / acetonitrile, 0.1% formic acid. The procedure, abridged: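 Pure standards were analyzed in mixtures of ~100 molecules using HPLC coupled to a quadrupole time-of-flight mass spectrometer, in both positive and negative ionization mode. Separation used a Zorbax Extend-C18 column (2.1 × 50 mm, 1.8 μm) at 100 μL/min, with water and acetonitrile each containing 0.1% formic acid. Dead and dwell volumes were 40 μL and 900 μL, and data were collected over 3 months. Retention time was read from computationally picked adduct peaks, each inspected manually.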
As to `CCOC(=O)c1ccc(NS(=O)(=O)c2ccc(-c3c(C)noc3C)cc2)cc1`, the RP-LC retention time came to 941 s.

Compound `Cc1ccccc1-c1noc(N2CCC(C(=O)N3CCOCC3)CC2)n1` yielded an RP-LC retention time of 796 s.

`O=C(NC1CCCCC1)C1CCCN(C(=O)c2cc(-c3cccnc3)n[nH]2)C1` (centres undefined) displayed an RP-LC retention time of 622 s. As for `O=C(NCC1CCN(c2cc(-c3cccnc3)[nH]n2)CC1)c1ccc2c(c1)OCO2`, the figure is 600 s; as for `CCN1c2ccccc2C(=O)NC12CCN(C(=O)c1ccccc1F)CC2`, 749 s. The compound `O=C(c1cccc2c1CCN2C(=O)C1CC1)N1CCOCC1` came in with an RP-LC retention time of 645 s. As for `CN(C)S(=O)(=O)N1CCN(S(=O)(=O)c2ccc(F)cc2)CC1`, the RP-LC retention time was 757 s.

`CC(=O)NCCc1csc(C2CCCN(C(=O)C3(c4ccccc4)CC3)C2)n1` (centres undefined): the RP-LC retention time is 705 s.

`Cc1ccccc1Cc1noc(-c2nc(-c3ccccc3F)no2)n1` displayed an RP-LC retention time of 1180 s. Regarding `Cn1cc(-c2nc(C(=O)Nc3ccc(C#N)cc3)cs2)c2cccnc21`, the RP-LC retention time worked out at 958 s. Compound `O=C(CN1C(=O)CCc2cc(Br)ccc21)N1CCN(c2ncccn2)CC1` showed an RP-LC retention time of 786 s. In the case of `CCOc1ccccc1C(=O)N1CCC2(CC1)N=C(c1cccc(Br)c1)NO2`, the RP-LC retention time came out at 951 s. As for `O=c1ccc(-c2cccc(Cl)c2)nn1Cc1nc(-c2cccs2)no1`, the RP-LC retention time came out at 1000 s. As for `O=C(NC1CCCN(c2ccc(=O)[nH]n2)C1)c1cc2cc(Cl)ccc2[nH]1` (centres undefined), the figure is 743 s; as for `Cc1cc(C)nc(N2CCN(c3c4c(nc5c(-c6ccccc6)c(C)nn35)CCC4)CC2)n1`, 1210 s; as for `Cc1nccn1Cc1nc(-c2ccccc2Cl)no1`, 624 s. In turn, `COc1ccc(-c2nnc(Cc3nc(-c4ccc5c(c4)OCO5)no3)o2)cc1OC` had an RP-LC retention time of 940 s.

`Cc1nnc(-c2ccc3c(c2)OCO3)o1` registered an RP-LC retention time of 706 s.

For the compound `CCC(C)NC(=O)C1COC2(CCN(C(=O)CC(C)(C)C)CC2)N1C(=O)c1ccc(OC)cc1` (centres undefined), the RP-LC retention time came to 760 s. The figure for `Cc1nc(-c2ccccc2)cc2nn(CC(=O)N3CCc4ccccc43)c(=O)n12` is 966 s. Turning to `CCC(C)N1CCN(C(=O)CCc2ccc3c(c2)CN(C(=O)C2CC2)CCO3)CC1` (centres undefined), the RP-LC retention time is 598 s.

The compound `O=C(COc1ccc(Cl)cc1)Nc1nnc(SCC(=O)NC2CCCC2)s1` gave an RP-LC retention time of 798 s. Take `Nc1nc(SCC(=O)c2ccc3c(c2)OCCO3)n[nH]1`: the RP-LC retention time is 574 s.

Take `Cc1ccc(NC(=O)Cn2nc(C)cc2C(=O)Nc2ccc3c(c2)OCO3)cc1`: the RP-LC retention time worked out at 866 s. With `COc1ccc(C(=O)N2CCN(c3nc(CN4CCOCC4)cs3)CC2)cc1`, the RP-LC retention time was 833 s.

With `CCOc1ccc(-c2noc(C3CC(=O)N(c4ccc5c(c4)OCO5)C3)n2)cc1` (centres undefined), the RP-LC retention time was 951 s.

In the case of `CNC(=O)c1ccsc1NC(=O)CN1C(=O)c2ccccc2C1=O`, the RP-LC retention time came out at 701 s. The compound `CC(C)C(=O)N1CC(c2noc(C3CCCN3CC3CC3)n2)C1` (centres undefined) gave an RP-LC retention time of 579 s.

`Cc1cc(Cl)ccc1S(=O)(=O)N1CCn2c(nn(CC3CC3)c2=O)C1` displayed an RP-LC retention time of 872 s. `CC1=C(c2cccc(Cl)c2)S(=O)(=O)N=C1N1CCCN(C(=O)c2ccoc2)CC1` came in with an RP-LC retention time of 806 s.

Turning to `O=C(Cn1c(=O)c(CCC(=O)NC2CCCC2)nc2ccccc21)Nc1ccc(F)cc1`, the RP-LC retention time was 808 s. As for `Cn1nccc1C(=O)N1CCC(c2nc(-c3ccc(F)cc3)no2)CC1`, the figure is 811 s; as for `Cc1noc(-c2cccn2Cc2c(F)cccc2Cl)n1`, 1130 s. The compound `COc1ccccc1-c1noc(C2CCCN2C(=O)c2ccc(NC(C)=O)cc2)n1` (centres undefined) came in with an RP-LC retention time of 713 s.

In the case of `CCn1cnc(S(=O)(=O)N2CCCC(C(=O)NC3CCCCCCC3)C2)c1` (centres undefined), the RP-LC retention time was determined as 788 s.

The compound `CC(C)n1nnc2cc(S(=O)(=O)N3CCCC(C(=O)N(C)Cc4ccccc4)C3)ccc21` (centres undefined) had an RP-LC retention time of 940 s.

In turn, `CCOc1ccc(-c2nc(C3CC(=O)N(c4ccc(F)cc4)C3)no2)cc1` (centres undefined) registered an RP-LC retention time of 1010 s. `Cc1noc(C2CN(C(=O)Nc3c(C)cccc3C)CC23CCOCC3)n1` (centres undefined) showed an RP-LC retention time of 693 s. As to `CC(C)NC(=O)c1cc(C2CC2)[nH]n1`, the RP-LC retention time was 644 s.

Compound `CCOC(=O)C1CCN(C(=O)Cn2c(=O)c3nnc(C)n3c3ncccc32)CC1` came in with an RP-LC retention time of 780 s. The figure for `CCOC(=O)c1cc(S(=O)(=O)N2CCCC2C(=O)Nc2ccc(F)cc2)cn1C` (centres undefined) is 920 s; for `COc1ccc(-c2nc3cnccn3c2Nc2ccc(C(C)C)cc2)cc1OC` it is 936 s; for `CN(C(=O)C1=Cc2ccccc2OC=C1)c1ccccc1` it is 1020 s. In the case of `CCCNC(=O)C1CCCN(c2ccc(SCC(=O)Nc3ccccc3OCC)nn2)C1` (centres undefined), the RP-LC retention time is 736 s. For the compound `COCCC(=O)N1CCC(c2noc(C3CC3)n2)C1` (centres undefined), the RP-LC retention time was determined as 627 s. In the case of `CN(C)S(=O)(=O)c1ccc2c(c1)N(CC(=O)NC1CCCC1)C(=O)C1CCCCN21` (centres undefined), the RP-LC retention time worked out at 856 s. `O=c1c2nnc3ccnn3c2ccn1CCc1c[nH]c2ccc(F)cc12`: the RP-LC retention time turned out to be 709 s. On to `O=C1CCCN1c1ccc(Cn2cc(-c3nc(-c4cccc(F)c4)no3)ccc2=O)cc1`, for which the RP-LC retention time came out at 608 s. As to `Cc1ccccc1CNC(=O)c1ccc2c(c1)CC(=O)N2C`, the RP-LC retention time stood at 714 s. The figure for `COc1ccc(Cl)c2c(=O)c3c([nH]c12)CCN(CC(=O)NCc1ccc(F)cc1)C3` is 612 s; for `COc1ccc(-c2nnc(N3CCC(C(=O)Nc4ccc(OC)c(OC)c4)CC3)o2)cc1` it is 748 s. Regarding `COc1ccc(C2CCCN2C(=O)Cn2nc(C(F)(F)F)cc2C)cc1` (centres undefined), the RP-LC retention time was found to be 953 s.

For `O=C1CC(CNS(=O)(=O)c2ccc3c(c2)OCCO3)CN1c1ccc(Cl)cc1` (centres undefined), the RP-LC retention time stood at 788 s. As to `Cn1nc(-c2nc(C3CC3)no2)c2c1CCN(C(=O)c1ccco1)C2`, the RP-LC retention time was determined as 744 s. Regarding `O=C(CSc1nccc(N2CCC(Cc3ccccc3)CC2)n1)NCCCc1ccccc1`, the RP-LC retention time was 906 s. Turning to `COc1cccc(CCC(=O)N2C[C@@H]3C[C@H](NC(=O)c4cccs4)[C@H]2C3)c1`, the RP-LC retention time turned out to be 728 s. In turn, `O=C(Nc1ccc(C(F)(F)F)cc1)NC1CCN(c2ccccc2)C1=O` (centres undefined) registered an RP-LC retention time of 912 s. Consider `O=C(NC1CCc2ccccc21)c1nnn(-c2ccc(F)cc2)c1-c1ccncc1` (centres undefined), for which the RP-LC retention time came to 799 s. In the case of `Cc1ccnc(N2CCC(C(=O)NCc3ccc(CN4CCCCCC4)o3)CC2)n1`, the RP-LC retention time was determined as 567 s.

For the compound `CN(C)c1cc(-n2cnc(C(=O)Nc3ccc4c(c3)OCCO4)c2)ncn1`, the RP-LC retention time was 755 s. Turning to `CN1[C@H]2C[C@H](OC(=O)[C@H](CO)c3ccccc3)C[C@@H]1[C@@H](O)C2`, the RP-LC retention time worked out at 596 s. `COc1ccc(-c2noc(-c3nnn(Cc4nc(-c5ccccc5OC)oc4C)c3C)n2)cc1` displayed an RP-LC retention time of 1100 s.

On to `Cc1ccc(NC(=O)N2CCC(n3cnc4c(C)cccc4c3=O)CC2)cc1`, for which the RP-LC retention time is 801 s. As for `CCOC(=O)c1noc2nc(C)nc(Nc3ccc(CN4CCN(CC)CC4)cc3)c12`, the figure is 612 s; as for `O=C(Nc1cccc(Cl)c1)N1CCCC1c1nc(-c2ccc(F)cc2F)no1` (centres undefined), 1030 s; as for `Cc1ccccc1CNC(=O)C1(C)CCCN(C(=O)Nc2cccc(C)c2C)C1` (centres undefined), 977 s.

`CCOc1ccc(NC(=O)Cn2c(=O)cc(-c3nc(C(C)C)no3)c3ccccc32)cc1` displayed an RP-LC retention time of 1030 s. Compound `COCC(=O)N(CCC(C)C)CC(=O)N1CCc2sccc2C1COc1ccccc1F` (centres undefined) yielded an RP-LC retention time of 958 s. Consider `COc1ccc(Cl)cc1NC(=O)N1CCC(n2cnc3cc(F)ccc3c2=O)CC1`, for which the RP-LC retention time was found to be 895 s. Regarding `COc1cc(-c2oc3cc(O)cc(O)c3c(=O)c2OC[C@@H]2OC(O[C@@H]3O[C@@H](C)[C@H](O)[C@@H](O)[C@H]3O)[C@@H](O)[C@H](O)[C@@H]2O)ccc1O` (some centres undefined), the RP-LC retention time was 638 s. Compound `Nc1nc(S(=O)(=O)Cc2ccccc2)ns1` registered an RP-LC retention time of 637 s. Compound `Cc1ccccc1Nc1c(-c2c(F)cccc2Cl)nc2ccccn12` yielded an RP-LC retention time of 739 s.

Compound `CCN1CCN(C(=O)c2nc(N3CCSCC3)c3cnn(C)c3n2)CC1` displayed an RP-LC retention time of 604 s. In the case of `CCC1Oc2ccc(S(=O)(=O)N3CCC(C(=O)N4CCCCCC4)CC3)cc2NC1=O` (centres undefined), the RP-LC retention time is 842 s.

Turning to `COc1ccccc1NC(=O)Cn1cnc2nc(N3CCCC(C(=O)NC4CC4)C3)sc2c1=O` (centres undefined), the RP-LC retention time is 681 s. As for `Cn1nnc2c(N3CCN(C(=O)c4c(F)cccc4Cl)CC3)ncnc21`, the figure is 687 s; as for `CCc1cc(C2CCCN2C(=O)Cc2ccccc2F)on1` (centres undefined), 777 s. In turn, `CC(=O)c1ccc(NC(=O)CCSc2ccc(Cl)cc2)cc1` came in with an RP-LC retention time of 887 s.

Compound `CCN(CC)S(=O)(=O)c1cc(-c2nnc(-c3ccccc3Cl)o2)ccc1C` returned an RP-LC retention time of 1130 s.
